Reference: US12304894B2, “Derivatives of adamantyl oxadiazoles and pharmaceutically acceptable solvates, hydrates and salts thereof, pharmaceutical composition comprising same, synthesis method, suitable for use as effective and selective inhibitors of the reductase activity of the enzyme 11-beta dehydrogenase type 1 …” (PONTIFICIA UNIVERSIDAD CATOLICA DE CHILE, priority 2019, dated 2025)
In brackets after ≈: the same amount, converted by molar mass.

Experiments:
[1] = biological target: recombinant 11β-HSD1 enzyme (Homo sapiens (Human), UniProt P28845); test: 11β-HSD1 oxidase activity (HTRF Cortisol Kit); type: biochemical
recombinant 11β-HSD1 enzyme, sequence (P28845 whole entry): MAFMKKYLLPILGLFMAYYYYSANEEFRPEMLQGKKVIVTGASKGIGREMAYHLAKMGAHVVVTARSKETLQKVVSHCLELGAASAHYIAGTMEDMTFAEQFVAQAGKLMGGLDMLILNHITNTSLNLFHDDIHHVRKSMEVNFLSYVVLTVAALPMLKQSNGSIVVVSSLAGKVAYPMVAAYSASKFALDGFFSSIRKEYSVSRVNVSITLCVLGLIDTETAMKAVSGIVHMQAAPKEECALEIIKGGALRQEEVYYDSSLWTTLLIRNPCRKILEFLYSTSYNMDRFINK
Description: Determination of 11β-HSD1 Oxidase Activity
The Cortisol Kit (Cisbio) product was used for that purpose.
For the analysis, the compounds are reconstituted in DMSO in a stock of 10 mM concentration, from which serial dilutions were prepared for the efficiency curve.
The recombinant 11β-HSD1 enzyme dilutions were prepared in 20 mM Tris Buffer 5 mM EDTA pH 6.0 (Tris buffer).
Initially, the enzyme concentration to be used was determined. For this purpose, a plate for HRTF was prepared with Tris buffer with 100 nM cortisol and 200 μM NADP+, including in the wells of the plate for HTRF together with the enzyme in a 4:1 ratio, respectively, and incubated for 2 hours at 37° C. After this time, the reagents of the Cortisol kit, Cortisol d2 and Cortisol cryptate in sample ratio, Cortisol d2 and cortisol cryptate 2:1:1 were added, incubating this new reaction for 1 hour at room temperature. Subsequently, the fluorescence was determined at 665 and 620 nm.
An HRTF plate was again prepared, where the reaction buffer, the recombinant 11β-HSD1 enzyme and the compound were added in each well in a 3:1:1 ratio, respectively. The plate was incubated at 37° C. for 2 hours. After the incubation time, the reagents of the cortisol kit, cortisol d2 and cortisol cryptate, were added as indicated above. They were then incubated at room temperature for 1 hour to finally read the fluorescence at 665 and 620 nm.

11β-HSD2 = 11β-HSD2 oxidase activity in human hepatic microsomes (HTRF Cortisol Kit); type: biochemical; conditions: remaining activity at 100 nM compound
Description: Determination of 11β-HSD2 Oxidase Activity
The concentration of cortisone produced in the reaction, with and without the compounds, was determined using the Cortisol Kit (Cisbio) product in order to evaluate the 11β-HSD2 oxidase activity.
As in the previous assays, the compounds are reconstituted in DMSO to 10 mM stock, in order to subsequently make serial dilutions to determine the efficacy curve.
To perform the assay, the HTRF plate was prepared containing Tris buffer, 100 nM cortisol and 200 μM NAD^+. Enzyme is added to the corresponding wells in a 4:1 ratio, respectively, and incubated for 2 hours at 37° C. For the kit control, two wells are added only with Tris buffer.
After the incubation time, the reagents of the Cortisol kit, Cortisol d2 and Cortisol cryptate, in a sample ratio, Cortisol d2 and cortisol cryptate 2:1:1 are added. For the negative control, cortisol d2 was replaced in some wells by the kit's reconstitution buffer. The plate was incubated for 1 hour at room temperature to later read at 665 and 620 nm.
For this purpose, the reaction buffer was prepared and subsequently, in a plate for HTRF, the reaction buffer, the microsomes in a concentration of 5 mg/mL and the compound in a ratio of 3:1:1, respectively, were added to each well. In the case of reaction controls, the reaction buffer without cortisol and without compound is included for the negative control. For the positive control, no compound is added, and for the kit controls, only the reaction buffer is added to the negative and positive control wells.
After incubating the plate for 2 hours, the reagents of the cortisol kit, cortisol d2 and cortisol cryptate, are added to the corresponding wells as indicated above. They are then incubated at room temperature for 1 hour to finally read the 665 and 620 nm fluorescence.

[2] = Aqueous solubility in the gastrointestinal pH range; type: physicochemical
Description: A stock solution of 100 mM was prepared in DMSO that was added in volumes established on the buffers until the appearance of turbidity was observed. These solutions were prepared in triplicate in final DMSO concentrations of 0.5 to 5.0% V/V of each buffer, then were incubated at 37° C. with vigorous stirring for 48 hours, then another 48 hours but without stirring. The samples were centrifuged and the supernatant was diluted with mobile phase chromatography to be later analyzed by μHPLC-Ms/Ms. The solubility value at each pH was obtained from the intercept of the straight line solubility versus % DMSO. Table 6 presents the aqueous solubility values of BD-40 in the pH range 1.2-6.8.

[3] = system: Madin-Darby Canine Kidney (MDCK) cells transfected with human P-glycoprotein (hMDR1); conditions: MDCK-MDR1
Description: Madin-Darby Canine Kidney (MDCK) cells were used in this assay, which are stably transfected with the gene encoding human P-glycoprotein (hMDR1). These cells were cultured in DMEM medium (Dulbecco's Modified Eagle's Medium) high in glucose and supplemented with 10% fetal bovine serum, 1% 5 mM pyruvate, 1% non-essential amino acids solution X5, 20,000 IU/mL of penicillin G and 20,000 IU/mL of streptomycin, a temperature of 37° C., 90% relative humidity and 5% CO2. These cells were seeded in sterile plates on the fourth day of growth or until reaching 90% confluence.
Ten days before carrying out the transport analysis, cells were seeded in Transwells® inserts (1.12 cm2) at a density of 60,000 cells/cm^2. The monolayers were supplemented every two days with fresh culture medium. […] In parallel, B-A experiments were performed (1.5 mL of donor solution in basolateral compartment and 0.5 mL buffer in apical). The monolayers were incubated while stirring (50 rpm) at a temperature of 37° C. for a period of 2 hours. Additionally, this assay was performed in the presence of the Pgp inhibitor elacridar (5 μM). After the stir time, the inserts were removed, the compartments were sampled and the cells were transferred to HPLC vials by diluting these samples with mobile phase chromatography. These samples were kept at −20° C. until their analysis time. […]

SMILES: Cc1cccc(CCc2nc(C34CC5CC(CC(C5)C3)C4)no2)c1 [BD-40, 1-(3-methylphenyl)-2-(3-adamantyl-1,2,4-oxadiazol-5-yl)ethane]
- 11b-HSD1 oxidase (activ rem %) 100 nM ([1]; remaining activity at 100 nM compound): 92.1%
- 11b-HSD1 oxidase (activ rem %) 100 uM ([1]; remaining activity at 100 uM compound): 89.9%
- 11b-HSD2 oxidase (activ rem %) Microcosms 100 nM (11β-HSD2): 97.9%
- Solubility ([2]; pH 1.7, 37° C.): 96.16 µg/mL (≈ 298 µM)
- Solubility ([2]; pH 4.5, 37° C.): 64.12 µg/mL (≈ 199 µM)
- Solubility ([2]; pH 6.8, 37° C.): 59.23 µg/mL (≈ 184 µM)
- Papp compared with high permeability marker minoxidil [3]: higher than those of the high permeability marker minoxidil
